Laboratory results from ChEMBL document CHEMBL1126767, “Three-dimensional quantitative structure-activity relationship of angiotesin-converting enzyme and thermolysin inhibitors. II. A comparison of CoMFA models incorporating molecular orbital fields and desolvation free energies based on active-analog and complementary-receptor-field alignment rules” (J Med Chem, 1993).
pIC50: −log10 of the molar value.

These molecules were tested against T1, Angiotensin-converting enzyme (Rattus norvegicus, UniProt P47820) (assay: Inhibitory activity against angiotensin converting enzyme (ACE); Activity is for a diastereomeric or racemic mixture).
T1 sequence (P47820 whole entry): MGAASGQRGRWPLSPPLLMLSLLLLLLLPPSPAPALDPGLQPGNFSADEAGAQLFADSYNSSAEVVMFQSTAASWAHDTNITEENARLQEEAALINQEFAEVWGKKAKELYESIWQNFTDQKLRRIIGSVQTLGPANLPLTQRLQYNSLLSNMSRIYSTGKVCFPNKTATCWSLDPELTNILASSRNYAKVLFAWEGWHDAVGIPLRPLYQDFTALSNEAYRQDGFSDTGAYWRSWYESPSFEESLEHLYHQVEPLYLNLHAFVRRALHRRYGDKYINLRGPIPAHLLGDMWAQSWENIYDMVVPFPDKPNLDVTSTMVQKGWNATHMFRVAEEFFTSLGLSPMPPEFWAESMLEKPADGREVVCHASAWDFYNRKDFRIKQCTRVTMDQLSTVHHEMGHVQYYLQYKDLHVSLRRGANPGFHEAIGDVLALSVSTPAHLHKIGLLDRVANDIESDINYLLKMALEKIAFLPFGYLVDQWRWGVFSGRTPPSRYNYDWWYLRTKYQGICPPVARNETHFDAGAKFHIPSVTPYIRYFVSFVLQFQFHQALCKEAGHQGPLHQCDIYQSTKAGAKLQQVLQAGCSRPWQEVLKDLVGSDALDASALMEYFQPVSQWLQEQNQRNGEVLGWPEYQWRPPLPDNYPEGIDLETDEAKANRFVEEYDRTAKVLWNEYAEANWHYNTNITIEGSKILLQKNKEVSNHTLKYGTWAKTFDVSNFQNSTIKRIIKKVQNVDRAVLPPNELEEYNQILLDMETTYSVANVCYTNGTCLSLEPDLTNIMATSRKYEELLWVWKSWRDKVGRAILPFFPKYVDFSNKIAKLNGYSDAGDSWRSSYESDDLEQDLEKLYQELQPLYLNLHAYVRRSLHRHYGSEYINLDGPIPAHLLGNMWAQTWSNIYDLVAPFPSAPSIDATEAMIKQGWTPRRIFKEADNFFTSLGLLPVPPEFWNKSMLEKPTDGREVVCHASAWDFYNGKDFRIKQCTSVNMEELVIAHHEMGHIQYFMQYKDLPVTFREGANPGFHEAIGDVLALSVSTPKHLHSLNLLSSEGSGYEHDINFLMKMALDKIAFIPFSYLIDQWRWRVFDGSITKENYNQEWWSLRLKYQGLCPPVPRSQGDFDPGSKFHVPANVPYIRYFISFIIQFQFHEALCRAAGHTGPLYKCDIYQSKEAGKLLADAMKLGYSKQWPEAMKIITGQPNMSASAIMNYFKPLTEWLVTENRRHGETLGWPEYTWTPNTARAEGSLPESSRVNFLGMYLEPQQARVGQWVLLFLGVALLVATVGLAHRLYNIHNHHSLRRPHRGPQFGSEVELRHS
Type: functional
With C[C@H](NC(C(=O)O)C(Cc1ccccc1)NC(=O)c1ccccc1)C(=O)N1CCC[C@H]1C(=O)O (some centres not stated) the pIC50 was 8.11.

Each molecule was assayed against Angiotensin-converting enzyme (Homo sapiens, UniProt P12821) (assay: Inhibitory activity against angiotensin converting enzyme (ACE)).
Type: functional
Work on O=C(CCS)N[C@@H](Cc1c[nH]c2ccccc12)C(=O)O (stereo in doubt; form 2) yielded a pIC50 of 5.34.
O=C(O)CNC(=O)CCS was tested, and the pIC50 was 5.55.
O=C(O)CCNC(=O)CCS showed a pIC50 of 3.31.
O=C(O)CCC(=O)N[C@@H](Cc1ccccc1)C(=O)O was tested, and the pIC50 was 3.26.
C[C@@]1(CCS)C(=O)N2CC=C[C@@H](C(=O)O)N2C1=O showed a pIC50 of 7.00.
For O=C(O)[C@@H]1CCCN1C(=O)CP(=O)(O)O, the pIC50 was 5.08.
With NCCCC[C@H](OP(=O)(O)CCCCc1ccccc1)C(=O)N(CC(=O)O)c1ccccc1 the pIC50 was 8.97.
Molecule O=C(CCS)N[C@@H](Cc1cnc[nH]1)C(=O)O has a pIC50 of 3.64.
In the case of NCCCC[C@H](OP(=O)(O)CCCCc1ccccc1)C(=O)N1C[C@@H](c2ccccc2)C[C@H]1C(=O)O, the pIC50 was 9.88.
Molecule NCCCC[C@H](OP(=O)(O)CCCCc1ccccc1)C(=O)N(CC(=O)O)C1CCCCC1 has a pIC50 of 9.53.
O=C(O)CN1C(=O)C(NC(CCc2ccccc2)C(=O)O)CCc2ccccc21 (configuration not stated) was tested, and the pIC50 was 8.77.
